Data taken from PubChem BioAssay AID651703 (Broad Institute, 2012).

Biological target: Transforming acidic coiled-coil-containing protein 3 (Homo sapiens) (UniProt Q9Y6A5)
Experiment: ARNT/TACC3 interaction disruptors, potency, confirmation, biochemical, AlphaScreen, cherry-picked samples (AID 651703);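 note: TACC3 partner is the GST-tagged E629A mutant dimer; hits lower the signal meaning they disrupt ARNT binding to TACC3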
Conditions: AlphaScreen His-ARNT PAS-B / GST-TACC3 binding, luminescence

Point of comparison: `COc1ccc(C2CC(=O)Oc3c(C(CCN4CCCCC4)c4ccc(N(C)C)cc4)c(OC)cc(OC)c32)cc1` (stereo unspecified), AC50 10.2 µM. Against it:
- O=C(N[C@H]1CC[C@H](CCn2cc(-c3ccccn3)nn2)O[C@@H]1CO)c1ccncc1 — within 1.5-fold, 14.8 µM
- O=C(NCCCn1ccnc1)C(=O)NCC1OCCN1S(=O)(=O)c1ccc(Cl)cc1 (stereo unspecified) — within 1.5-fold, 10.8 µM
- CCOC(=O)/C(=N/Nc1ccccc1OC)N1CCCc2ccccc21 — 1.7-fold higher, 17.3 µM
- O=S(=O)(c1cccc2cccnc12)N1CCN(Cc2ccc(OCCO)cc2)CC1 — 4.7-fold higher, 48.2 µM
- O=S(=O)(N[C@H]1CC[C@H](CCn2cc(-c3ccccn3)nn2)O[C@H]1CO)c1cccc(Cl)c1 — 2.6-fold higher, 26.6 µM
- c1ccc(-c2nnc(-c3ccccn3)nc2NCCN2CCOCC2)cc1 — 17-fold lower, 0.593 µM
- OCCN1CCN(Cc2cc(Cl)c3cccnc3c2O)CC1 — 7.6-fold lower, 1.34 µM
- CCOc1cc(CNCc2ccccn2)cc(Cl)c1OCC — 4.4-fold higher, 45 µM
- Oc1ccc(Cl)cc1CNc1cccc2cccnc12 — 5.4-fold higher, 54.8 µM
- c1ccc(-c2nnc(-c3ccccn3)nc2NCCCN2CCOCC2)cc1 — lower, < 0.5 µM
- O=C(CSc1ccc(-c2ccccn2)nn1)NCc1ccc(Cl)cc1 — within 1.5-fold, 11 µM
- Nn1c(SCC(=O)Nc2ccc3c(c2)OCCO3)nnc1-c1ccccn1 — 1.8-fold higher, 18.6 µM
- COc1cccc(/C=N/NC(=O)CNC(=O)c2ccncc2)c1O — 6.4-fold higher, 64.8 µM
- COc1ccc(NC(=O)CSc2n[nH]c(-c3ccccn3)n2)cc1 — 11-fold lower, 0.963 µM
- Cc1cccnc1Nc1nc(-c2ccccn2)cs1 — 13-fold lower, 0.756 µM
- O=C(N[C@@H]1CC[C@H](CCn2cc(-c3ccccn3)nn2)O[C@H]1CO)c1ccc(F)cc1 — within 1.5-fold, 14.3 µM
- Clc1cccc(CNc2nc(-c3ccccn3)nnc2-c2ccccc2)c1 — 9.7-fold lower, 1.05 µM
- O=C(CSc1cccc2cccnc12)OCC(=O)c1ccccc1 — 3.7-fold higher, 37.3 µM
- O=C(N[C@H]1CC[C@@H](CCn2cc(-c3ccccn3)nn2)O[C@H]1CO)c1cccnc1 — within 1.5-fold, 8.65 µM
- C[C@@H](Nc1nc(-c2ccccn2)nnc1-c1ccccc1)C1CCCCC1 — 4.5-fold lower, 2.26 µM
- O=C(O)CCNc1cc(N2CCN(C(=O)c3ccco3)CC2)c2noc3c2c1C(=O)c1ccccc1-3 — within 1.5-fold, 14.9 µM
- Clc1ccc(-c2ccc(CNCc3ccccn3)o2)cc1 — 2-fold higher, 20 µM
- O=C(CSc1ccc(-c2ccccn2)nn1)NCc1ccc(F)cc1 — 1.5-fold lower, 6.65 µM
- c1ccc(-c2nnc(-c3ccccn3)nn2)nc1 — 2.8-fold higher, 28.8 µM
- COc1ccccc1Nc1cc2cc(Br)ccc2c(=O)[nH]1 — 1.6-fold higher, 16.8 µM
- CC(C)Nc1nc(NC(C)C)nc(C(=O)OCCO)n1 — 4.1-fold higher, 41.8 µM
- COc1cccc(CNC(=O)CSc2ccc(-c3ccccn3)nn2)c1 — 2.5-fold lower, 4.03 µM
- Cc1ccc(-n2c(SCC(N)=O)nnc2-c2ccccn2)cc1 — 3.4-fold higher, 34.7 µM
- c1ccc(CSc2ccc(-c3ccccn3)nn2)nc1 — 11-fold lower, 0.895 µM
- COC(=O)c1ccc2[nH]c3c(c2c1)CC(C)CC3 (stereo unspecified) — 3.3-fold higher, 33.2 µM
- CSCc1cc(N(C)c2ccccc2)nc(-c2ccccn2)n1 — 1.7-fold lower, 5.86 µM
- Nc1nc(-c2ccccn2)nc(N)c1Cc1ccccc1F — 3-fold lower, 3.39 µM
- O=C(CSc1ccc2nnc(-c3ccccn3)n2n1)Nc1ccc(F)cc1F — 3.5-fold higher, 35.4 µM
- COc1ccc(C2c3ccc(O)cc3Oc3ncn4nc(-c5ccccn5)nc4c32)cc1OC (stereo unspecified) — 5.1-fold higher, 52.5 µM
- O=C(CSc1ccc(-c2ccccn2)nn1)Nc1ccccc1 — 5.2-fold lower, 1.96 µM
- CN(C)CCN(C(=O)c1ccc2c(c1)CCCC2)c1nc2cc3c(cc2s1)OCCO3 — 2-fold higher, 19.9 µM
- Cn1cccc1C(=O)Nc1nc(-c2ccccn2)cs1 — 1.9-fold lower, 5.3 µM
- COc1cc(C2C(C#N)=C(N)Oc3n[nH]c(-c4ccccn4)c32)cc(OC)c1OC (stereo unspecified) — 1.9-fold higher, 19.7 µM
- C(=N\Nc1ncnc2nc[nH]c12)/c1cccs1 — 5.7-fold higher, 57.8 µM
- O=C(Nc1nnc(-c2ccccc2Cl)o1)c1cccnc1 — 1.5-fold higher, 15.8 µM
- CCC(C)Nc1nc(-c2ccccn2)nc2ccccc12 (stereo unspecified) — within 1.5-fold, 8.57 µM
- O=C(N/N=C\c1cccc([N+](=O)[O-])c1O)C1COc2ccccc2O1 (stereo unspecified) — within 1.5-fold, 14.7 µM
- COc1ccc([Si](C)(C)[C@@H]2[C@@H](CCO)O[C@]3(C(=O)N4c5c(cc(OC)cc53)C(C)=CC4(C)C)[C@H]2C)cc1 — within 1.5-fold, 11.3 µM
- Cc1[nH]n(-c2ccccc2)c(=O)c1/C=N/N(c1ccccc1)c1ccccc1 — 1.6-fold higher, 16.2 µM
- CCOc1cccc(/C=N/NC(=O)c2cc(-c3cccn3C)n[nH]2)c1O — 1.7-fold higher, 17.1 µM
